In US10259810B2, “N-sulfonylated pyrazolo[3,4-b]pyridin-6-carboxamides and method of use” (AbbVie S.à.r.l., priority 2015, dated 2019):

Tests used:
ΔF508-CFTR [1] = molecular target: T1, ΔF508-CFTR (Homo sapiens, UniProt P13569, DEL508-508); assay: CFTR cell surface levels using HRP-tagged ΔF508-CFTR expressing CFBE cells, in the presence of a co-corrector; assay type: cell-based; details: HRP-tagged ΔF508-CFTR CFBE cells, in the presence of 3 μM co-corrector; for EC50: read-out: EC50
T1 construct: host or cells: CFBE41o-, doxycycline-inducible
T1 sequence (P13569 with tags, fused parts or gaps DEL508-508): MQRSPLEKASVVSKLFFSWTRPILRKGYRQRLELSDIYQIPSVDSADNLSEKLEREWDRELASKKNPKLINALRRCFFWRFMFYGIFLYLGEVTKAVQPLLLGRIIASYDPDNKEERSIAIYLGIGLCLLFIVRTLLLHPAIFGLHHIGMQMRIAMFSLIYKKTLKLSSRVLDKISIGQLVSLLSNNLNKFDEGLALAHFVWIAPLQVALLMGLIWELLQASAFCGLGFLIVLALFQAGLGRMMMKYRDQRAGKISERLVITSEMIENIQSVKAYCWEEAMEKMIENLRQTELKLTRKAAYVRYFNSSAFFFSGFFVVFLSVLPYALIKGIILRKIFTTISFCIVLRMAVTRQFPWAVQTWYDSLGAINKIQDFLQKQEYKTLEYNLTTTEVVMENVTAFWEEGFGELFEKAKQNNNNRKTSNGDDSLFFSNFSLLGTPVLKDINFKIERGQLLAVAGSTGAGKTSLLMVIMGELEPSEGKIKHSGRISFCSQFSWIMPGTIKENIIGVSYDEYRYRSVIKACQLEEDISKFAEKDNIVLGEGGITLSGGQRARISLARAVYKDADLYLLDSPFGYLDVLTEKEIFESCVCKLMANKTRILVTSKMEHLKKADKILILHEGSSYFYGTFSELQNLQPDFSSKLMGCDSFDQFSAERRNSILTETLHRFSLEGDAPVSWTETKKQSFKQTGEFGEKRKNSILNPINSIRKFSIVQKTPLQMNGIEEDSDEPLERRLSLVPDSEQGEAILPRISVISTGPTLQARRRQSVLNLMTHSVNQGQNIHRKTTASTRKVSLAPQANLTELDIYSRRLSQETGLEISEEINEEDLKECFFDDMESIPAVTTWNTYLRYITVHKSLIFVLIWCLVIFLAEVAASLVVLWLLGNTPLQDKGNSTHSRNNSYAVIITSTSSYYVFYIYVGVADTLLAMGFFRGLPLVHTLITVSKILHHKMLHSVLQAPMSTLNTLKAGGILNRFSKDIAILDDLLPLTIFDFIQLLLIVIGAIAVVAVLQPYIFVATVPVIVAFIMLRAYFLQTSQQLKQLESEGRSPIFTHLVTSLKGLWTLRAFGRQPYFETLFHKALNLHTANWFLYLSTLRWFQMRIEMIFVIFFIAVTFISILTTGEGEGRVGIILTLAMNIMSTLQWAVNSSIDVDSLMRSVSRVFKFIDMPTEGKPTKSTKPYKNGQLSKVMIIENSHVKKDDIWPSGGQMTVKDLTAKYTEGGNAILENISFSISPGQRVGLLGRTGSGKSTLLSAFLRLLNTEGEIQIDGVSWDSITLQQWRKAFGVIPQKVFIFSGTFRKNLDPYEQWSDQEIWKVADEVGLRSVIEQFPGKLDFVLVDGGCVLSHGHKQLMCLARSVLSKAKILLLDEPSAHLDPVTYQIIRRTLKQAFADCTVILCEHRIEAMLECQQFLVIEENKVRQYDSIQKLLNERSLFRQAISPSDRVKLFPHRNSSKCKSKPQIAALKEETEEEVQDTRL
Outline: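 Chemiluminescent read-out of surface HRP (15 min, dark) after PBS washes. Activity is normalized as 100×(sample−DMSO)/(3 μM co-corrector alone−DMSO).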

ΔF508-CFTR [2] = molecular target: T1, ΔF508-CFTR; assay: CFTR cell surface levels using HRP-tagged ΔF508-CFTR expressing CFBE cells, intrinsic corrector capacity; assay type: cell-based; set-up: % Activation: concentration or dose not given beside the values; details: HRP-tagged ΔF508-CFTR expressing CFBE41o- cells, compound alone (intrinsic corrector capacity), 20 hours at 33° C.; for EC50: read-out: EC50
From the text: Measuring CFTR Cell Surface Levels Using HRP-Tagged ΔF508-CFTR Expressing CFBE Cells
The HRP-tagged ΔF508-CFTR cell assay measures the expression of CFTR-ΔF508 at the plasma membrane. CFTR-ΔF508 has a folding defect leading to absence of protein at the plasma membrane. This assay is used to evaluate the capacity of compounds to increase the expression of CFTR-ΔF508 at the plasma membrane. The CFTR-ΔF508 is tagged with HRP (horse radish peroxidase enzyme) within the ECL4 (Extracellular loop 4) of CFTR (Phuan, P.-W. et al. Synergy-based small-molecule screen using a human lung epithelial cell line yields ΔF508-CFTR correctors that augment VX-809 maximal efficacy. Mol. Pharmacol. 86, 42-51 (2014)). When HRP-tagged ΔF508-CFTR is present at the plasma membrane, the HRP enzyme activity can be measured. The amount of CFTR-ΔF508 that can be rescued to the plasma membrane is correlated with the amount of functional enzyme that can be measured.
There are several ways to measure the capacity of compounds to rescue CFTR-ΔF508 to the plasma membrane; either compounds are evaluated on their own and the impact on plasma membrane levels is measured or compounds are evaluated in combination with a co-corrector, i.e. a compound that rescues CFTR-ΔF508 to the plasma membrane but rescue can be enhanced by addition of compounds due to a complementary mode of action.
Activity of Compounds for their Intrinsic Corrector Capacity:
For this purpose doxycycline-inducible ΔF508-CFTR-HRP expressing CFBE4lo− cells (obtained from Gergely Lukacs, McGill University) were maintained in MEM (Gibco; 31095) supplemented with 10% fetal bovine serum (Hyclone; SV30160.03) under puromycin (3 μg/mL) and G418 selection (0.2 mg/mL). For compound testing, cells were seeded at 4000 cells/well in white 384-well plates (Greiner; 781080) in 50 μL medium containing 0.5 μg/mL doxycycline and incubated for 68 hours at 37° C., 5% CO2. On day four, […] compounds diluted in PBS were added to the plates at a final DMSO concentration of 0.1%. All compound plates contained negative controls (DMSO) and positive controls ([…] corrector, 3-[(2R,4R)-4-({[1-(2,2-difluoro-1,3-benzodioxol-5-yl)cyclopropyl]carbonyl}amino)-7-methoxy-3,4-dihydro-2H-chromen-2-yl]benzoic acid). Cell plates were incubated at 33° C., 5% CO2 for 20 hours. On day five, the cells were washed five times with phosphate-buffered saline, and HRP activity was assayed by the addition of 50 μL/well of HRP substrate (SuperSignal™ West Pico Chemiluminescent Substrate, Thermo Scientific; 34080). After incubation for 15 minutes in the dark, chemiluminescence was measured using a plate reader (EnVision®, Perkin Elmer). Raw data were normalized to percentage activity values using the equation: 100×(Sample−Negative control)/(Positive control−Negative Control).

Row | SMILES | % Activation (ΔF508-CFTR [1]) [%] | EC50 (ΔF508-CFTR [1]) [µM] | % Activation (ΔF508-CFTR [2]) [%] | EC50 (ΔF508-CFTR [2]) [µM]
1 | Cc1nn(-c2ccccc2)c2nc(C(=O)NS(C)(=O)=O)cc(-c3ccc(N4CCOCC4)nc3)c12 [Compound 37, N-(methanesulfonyl)-3-methyl-4-[6-(morpholin-4-yl)pyridin-3-yl]-1-phenyl-1H-pyrazolo[3,4-b]pyridine-6-carboxamide] | 457.25 | 1.16 | 222.85 | 1.66
2 | CC(C)c1nn(-c2cccc(N(C)C)c2)c2nc(C(=O)NS(=O)(=O)CCCN=[N+]=[N-])cc(-c3ccc(N=[N+]=[N-])cc3)c12 [Compound 327, 4-(4-azidophenyl)-N-(3-azidopropane-1-sulfonyl)-1-[3-(dimethylamino)phenyl]-3-(propan-2-yl)-1H-pyrazolo[3,4-b]pyridine-6-carboxamide] | 433.9 | 0.0999 | 239.4 | 0.145
3 | CC(C)N1CCC(c2cc(C(=O)NS(=O)(=O)N(C)C)nc3c2c(C2CCC2)nn3-c2ccc(F)cc2)CC1 [Compound 598, 3-cyclobutyl-N-(dimethylsulfamoyl)-1-(4-fluorophenyl)-4-[1-(propan-2-yl)piperidin-4-yl]-1H-pyrazolo[3,4-b]pyridine-6-carboxamide] | 153.9 | ≥ 10 | 28.03 | 
4 | COC1CCN(c2cc(C(=O)NS(=O)(=O)CC(F)(F)F)nc3c2c(C2CCC2)nn3-c2ccccc2)CC1 [Compound 176, 3-cyclobutyl-4-(4-methoxypiperidin-1-yl)-1-phenyl-N-(2,2,2-trifluoroethanesulfonyl)-1H-pyrazolo[3,4-b]pyridine-6-carboxamide] | 390.43 | 0.209 | 190.4 | 0.337
5 | COCC1CCN(c2cc(C(=O)NS(=O)(=O)C3(C)CC3)nc3c2c(C2CCC2)nn3-c2ccccc2)CC1 [Compound 374, 3-cyclobutyl-4-[4-(methoxymethyl)piperidin-1-yl]-N-(1-methylcyclopropane-1-sulfonyl)-1-phenyl-1H-pyrazolo[3,4-b]pyridine-6-carboxamide] | 426.05 | 0.196 | 240.7 | 0.254
6 | CN(C)S(=O)(=O)NC(=O)c1cc(C2CCN(C3CCOCC3)CC2)c2c(C3CCC3)nn(-c3ccc(F)cc3)c2n1 [Compound 612, 3-cyclobutyl-N-(dimethylsulfamoyl)-1-(4-fluorophenyl)-4-[1-(oxan-4-yl)piperidin-4-yl]-1H-pyrazolo[3,4-b]pyridine-6-carboxamide] | 320.8 | 3.33 | 108.7 | 0.876
7 | CC(C)c1nn(-c2cccc(N(C)C)n2)c2nc(C(=O)NS(C)(=O)=O)cc(-c3ccc(N4CCOCC4)cc3)c12 [Compound 125, 1-[6-(dimethylamino)pyridin-2-yl]-N-(methanesulfonyl)-4-[4-(morpholin-4-yl)phenyl]-3-(propan-2-yl)-1H-pyrazolo[3,4-b]pyridine-6-carboxamide] | 520.33 | 0.463 | 369.87 | 0.988
8 | CC(C)c1nn(-c2ccc(F)cc2)c2nc(C(=O)NS(C)(=O)=O)cc(OCC3CCOCC3)c12 [Compound 284, 1-(4-fluorophenyl)-N-(methanesulfonyl)-4-[(oxan-4-yl)methoxy]-3-(propan-2-yl)-1H-pyrazolo[3,4-b]pyridine-6-carboxamide] | 348.7 | 0.22 | 154.4 | 0.276
9 | CN1CCCN(C(=O)c2cc(N3CCC(N4CCOCC4)CC3)c3c(C4CCC4)nn(-c4ccccc4)c3n2)S1(=O)=O [Compound 664, 2-{3-cyclobutyl-4-[4-(morpholin-4-yl)piperidin-1-yl]-1-phenyl-1H-pyrazolo[3,4-b]pyridine-6-carbonyl}-6-methyl-1λ^6,2,6-thiadiazinane-1,1-dione] | 230.48 | 0.172 | 70.082 | 0.278
10 | CCS(=O)(=O)NC(=O)c1cc(N2CCC(OC)CC2)c2c(C(C)C)nn(-c3cccc(C)c3)c2n1 [Compound 118, N-(ethanesulfonyl)-4-(4-methoxypiperidin-1-yl)-1-(3-methylphenyl)-3-(propan-2-yl)-1H-pyrazolo[3,4-b]pyridine-6-carboxamide] | 469 | 0.28 | 289.93 | 0.398
11 | COCC1CCN(c2cc(C(=O)NS(=O)(=O)NC3CCOCC3)nc3c2c(C2CCC2)nn3-c2ccc(F)cc2)CC1 [Compound 675, 3-cyclobutyl-1-(4-fluorophenyl)-4-[4-(methoxymethyl)piperidin-1-yl]-N-[(oxan-4-yl)sulfamoyl]-1H-pyrazolo[3,4-b]pyridine-6-carboxamide] |  |  | 398.1 | 0.316
12 | CNS(=O)(=O)NC(=O)c1cc(N2CCN(C(=O)OCC(C)C)CC2)c2c(C3CCC3)nn(-c3ccc(F)cc3)c2n1 [Compound 684, 2-methylpropyl 4-{3-cyclobutyl-1-(4-fluorophenyl)-6-[(methylsulfamoyl)carbamoyl]-1H-pyrazolo[3,4-b]pyridin-4-yl}piperazine-1-carboxylate] |  |  | 356.9 | 0.115
13 | CCOC(=O)N1CCC(NS(=O)(=O)NC(=O)c2cc(N3CCC(COC)CC3)c3c(C4CCC4)nn(-c4ccc(F)cc4)c3n2)CC1 [Compound 673, ethyl 4-[({3-cyclobutyl-1-(4-fluorophenyl)-4-[4-(methoxymethyl)piperidin-1-yl]-1H-pyrazolo[3,4-b]pyridine-6-carbonyl}sulfamoyl)amino]piperidine-1-carboxylate] |  |  | 423.5 | 0.288
14 | CCS(=O)(=O)NC(=O)c1cc(OCC2CCOCC2)c2c(C3CCC3)nn(-c3ccccc3)c2n1 [Compound 335, 3-cyclobutyl-N-(ethanesulfonyl)-4-[(oxan-4-yl)methoxy]-1-phenyl-1H-pyrazolo[3,4-b]pyridine-6-carboxamide] |  |  | 171.65 | 0.15
15 | COCC1CCN(c2cc(C(=O)NS(=O)(=O)NC3COC3)nc3c2c(C2CCC2)nn3-c2ccc(F)cc2)CC1 [Compound 674, 3-cyclobutyl-1-(4-fluorophenyl)-4-[4-(methoxymethyl)piperidin-1-yl]-N-[(oxetan-3-yl)sulfamoyl]-1H-pyrazolo[3,4-b]pyridine-6-carboxamide] |  |  | 389.5 | 0.156
16 | CCOC(=O)N1CCN(c2cc(C(=O)NS(=O)(=O)N3CCOCC3)nc3c2c(C2CCC2)nn3-c2ccc(F)cc2)CC1 [Compound 678, ethyl 4-{3-cyclobutyl-1-(4-fluorophenyl)-6-[(morpholine-4-sulfonyl)carbamoyl]-1H-pyrazolo[3,4-b]pyridin-4-yl}piperazine-1-carboxylate] |  |  | 345.1 | 0.221
17 | COCCS(=O)(=O)NC(=O)c1cc(N2CCN(C(=O)OCC(C)C)CC2)c2c(C3CCC3)nn(-c3ccc(F)cc3)c2n1 [Compound 683, 2-methylpropyl 4-{3-cyclobutyl-1-(4-fluorophenyl)-6-[(2-methoxyethanesulfonyl)carbamoyl]-1H-pyrazolo[3,4-b]pyridin-4-yl}piperazine-1-carboxylate] |  |  | 354.9 | 0.253
18 | COCC1CCN(c2cc(C(=O)NS(=O)(=O)N3CCC(N4CCOCC4)CC3)nc3c2c(C2CCC2)nn3-c2ccc(F)cc2)CC1 [Compound 676, 3-cyclobutyl-1-(4-fluorophenyl)-4-[4-(methoxymethyl)piperidin-1-yl]-N-[4-(morpholin-4-yl)piperidine-1-sulfonyl]-1H-pyrazolo[3,4-b]pyridine-6-carboxamide] |  |  | 251.1 | 0.251
